“And” between values parts separate entries of the source, which are not always exact repeats. Equal entries are not always repeated.
Assays:
Test in all cases: Greenhouse post-emergence weed control, visual score 0-100 percent
Assay type in all cases: in vivo
[1] = system: Sinapis arvensis L. (wild mustard, SINAR)
Description: (§1) Results in Examples are greenhouse trial results.
(§2) Seeds or nutlets of the desired test plant species were planted in a soil matrix prepared by mixing a loam or sandy loam soil (e.g., 28.6 percent silt, 18.8 percent clay, and 52.6 percent sand, with a pH of about 5.8 and an organic matter content of about 1.8 percent) and calcareous grit in an 80 to 20 ratio. The soil matrix was contained in plastic pots with a volume of 1 quart and a surface area of 83.6 cm2. When required to ensure good germination and healthy plants, a fungicide treatment and/or other chemical or physical treatment was applied. The plants were grown for 8-22 days in a greenhouse with an approximate 14 h photoperiod which was maintained at about 29° C. during the day and 26° C. during the night. Nutrients (Peters Excel® 15-5-15 5-Ca 2-Mg and iron chelate) were applied in the irrigation solution as needed and water was added on a regular basis. Supplemental lighting was provided with overhead metal halide 1000-Watt lamps as necessary. The plants were employed for testing when they reached the first through fourth true leaf stage.
(§3) Treatments comprised of the acid or esters of halauxifen-methyl (methyl 4-amino-3-chloro-6-(4-chloro-2-fluoro-3-methoxyphenyl)picolinate), each formulated as an SC (suspension concentrate), and various herbicidal components alone and in combination. A form of the compound of Formula I were applied on an acid equivalent basis.
(§4) Treatment requirements were calculated based upon the rates being tested, the concentration of active ingredient or acid equivalent in the formulation, and a 12 mL application volume at a rate of 187 L/ha.
(§5) For treatments comprised of formulated and technical compounds, weighed amounts of the technical materials were placed individually in 25 mL glass vials and dissolved in a volume of 97:3 v/v acetone/DMSO to obtain 12× stock solutions, and measured amounts of the formulated compounds were placed individually in 25 mL glass vials and diluted in a volume of 1.5% (v/v) crop oil concentrate or water to obtain 12× stock solutions. […] As required, additional water and/or 97:3 v/v acetone/DMSO was added to individual application solutions so that the final acetone and DMSO concentrations of the application solutions being compared were 8.1% and 0.25%, respectively.
(§6) All stock solutions and applications solutions were visually inspected for compound compatibility prior to application. Spray solutions were applied to the plant material with an overhead Mandel track sprayer equipped with an 8002E nozzle calibrated to deliver 187 L/ha over an application area of 0.503 m2 at a spray height of 18 to 20 inches (46 to 50 cm) above average plant canopy height. Control plants were sprayed in the same manner with the solvent blank.
(§7) The treated plants and control plants were placed in a greenhouse as described above and watered by sub-irrigation to prevent wash-off of the test compounds. After approximately 7, 14.21 days, the condition of the test plants as compared with that of the untreated plants was determined visually and scored on a scale of 0 to 100 percent where 0 corresponds to no injury or growth inhibition and 100 corresponds to complete kill.

[2] = system: Abutilon theophrasti Medik. (velvetleaf, ABUTH)
Description: as §1, §2, §3, §4, §5, §6, §7

[3] = system: Amaranthus rudis Sauer, (common waterhemp, AMATA); conditions: 7 DAA
Description: as §1, §2, §3, §4, §5, §6, §7

[4] = system: Polygonum convolvulus L. (wild buckwheat, POLCO)
Description: as §1, §2, §3, §4, §5, §6, §7

[5] = system: Chenopodium album L. (common lambsquarters, CHEAL)
Description: as §1, §2, §3, §4, §5, §6
as §7, with “[…],” for “After approximately 7, 14.21 days,”

CCCCCCC(C)OC(=O)COc1nc(F)c(Cl)c(N)c1Cl (stereo not drawn) [Chemical 3, 1-methytheptyl 2-[(4-amino-3,5-dichloro-6-fluoro-2-pyridinyl)oxy]acetate]
Chemical 3 Mean % Weed Control ([1]; 14 DAA, alone at 35 gae/ha): 63.75%
Chemical 3 Mean % Weed Control ([1]; 21 DAA, alone at 17.5 gae/ha): 54.25%
Chemical 3 Mean % Weed Control ([2]; 7 DAA, alone at 8.8 gae/ha): 15%
Chemical 3 Mean % Weed Control ([2]; 7 DAA, alone at 17.5 gae/ha): 28.75%
Chemical 3 Mean % Weed Control ([2]; 7 DAA, alone at 35 gae/ha): 67.5%
Chemical 3 Mean % Weed Control ([2]; 7 DAA, alone at 70 gae/ha): 75.5%
Chemical 3 Mean % Weed Control ([2]; 14 DAA, alone at 8.8 gae/ha): 2.5%
Chemical 3 Mean % Weed Control ([2]; 14 DAA, alone at 17.5 gae/ha): 20%
Chemical 3 Mean % Weed Control ([2]; 14 DAA, alone at 35 gae/ha): 67%
Chemical 3 Mean % Weed Control ([2]; 14 DAA, alone at 70 gae/ha): 70%
Chemical 3 Mean % Weed Control ([3]; alone at 8.8 gae/ha): 0%
Chemical 3 Mean % Weed Control ([3]; alone at 17.5 gae/ha): 3.75%
Chemical 3 Mean % Weed Control ([3]; alone at 35 gae/ha): 3.75%
Chemical 3 Mean % Weed Control ([4]; 7 DAA, alone at 8.6 gae/ha): 52.5%
Chemical 3 Mean % Weed Control ([4]; 7 DAA, alone at 8.8 gae/ha): 52.5%
Chemical 3 Mean % Weed Control ([4]; 7 DAA, alone at 17.5 gae/ha): 47.5%
Chemical 3 Mean % Weed Control ([4]; 14 DAA, alone at 8.8 gae/ha): 12.5%
Chemical 3 Mean % Weed Control ([4]; 14 DAA, alone at 17.5 gae/ha): 62.25%
Chemical 3 Mean % Weed Control ([4]; 21 DAA, alone at 8.8 gae/ha): 0%
Chemical 3 Mean % Weed Control ([5]; 7 DAA, alone at 8.8 gae/ha): 0%
Chemical 3 Mean % Weed Control ([5]; 7 DAA, alone at 17.S gae/ha): 0%
Chemical 3 Mean % Weed Control ([5]; 7 DAA, alone at 17.5 gae/ha): 0%
Chemical 3 Mean % Weed Control ([5]; 7 DAA, alone at 35 gae/ha): 0%
Chemical 3 Mean % Weed Control ([5]; 7 DAA, alone at 70 gae/ha): 10%
Chemical 3 Mean % Weed Control ([5]; 14 DAA, alone at 8.8 gae/ha): 0%
Chemical 3 Mean % Weed Control ([5]; 14 DAA, alone at 17.5 gae/ha): 10% and 5%
Chemical 3 Mean % Weed Control ([5]; 14 DAA, alone at 35 gae/ha): 5% and 3.75% and 1.75%
Chemical 3 Mean % Weed Control ([5]; 14 DAA, alone at 70 gae/ha): 31.25% and 35%
Chemical 3 Mean % Weed Control ([5]; 17 DAA, alone at 8.8 gae/ha): 0%
Chemical 3 Mean % Weed Control ([5]; 17 DAA, alone at 17.5 gae/ha): 8.75%
Chemical 3 Mean % Weed Control ([5]; 17 DAA, alone at 35 gae/ha): 3.75%
Chemical 3 Mean % Weed Control ([5]; 17 DAA, alone at 70 gae/ha): 38.75%

COC(=O)c1nc(-c2ccc(Cl)c(OC)c2F)cc(N)c1Cl [Chemical 1, methyl 4-amino-3-chloro-6-(4-chloro-2-fluoro-3-methoxyphenyl)picolinate]
Chemical 1 Mean % Weed Control ([1]; 14 DAA, alone at 4 gae/ha): 0%
Chemical 1 Mean % Weed Control ([1]; 21 DAA, alone at 1 gae/ha): 1.25%
Chemical 1 Mean % Weed Control ([2]; 7 DAA, alone at 1 gae/ha): 81.25%
Chemical 1 Mean % Weed Control ([2]; 7 DAA, alone at 2 gae/ha): 81.25%
Chemical 1 Mean % Weed Control ([2]; 7 DAA, alone at 4 gae/ha): 84.5%
Chemical 1 Mean % Weed Control ([2]; 14 DAA, alone at 2 gae/ha): 87.25%
Chemical 1 Mean % Weed Control ([3]; alone at 2 gae/ha): 70.5%
Chemical 1 Mean % Weed Control ([3]; alone at 4 gae/ha): 73%
Chemical 1 Mean % Weed Control ([4]; 7 DAA, alone at 1 gae/ha): 2.5%
Chemical 1 Mean % Weed Control ([4]; 7 DAA, alone at 2 gae/ha): 11.25%
Chemical 1 Mean % Weed Control ([4]; 7 DAA, alone at 4 gae/ha): 28.75%
Chemical 1 Mean % Weed Control ([4]; 14 DAA, alone at 2 gae/ha): 0%
Chemical 1 Mean % Weed Control ([4]; 14 DAA, alone at 4 gae/ha): 20%
Chemical 1 Mean % Weed Control ([4]; 21 DAA, alone at 1 gae/ha): 0%
Chemical 1 Mean % Weed Control ([4]; 21 DAA, alone at 2 gae/ha): 6.25%
Chemical 1 Mean % Weed Control ([4]; 21 DAA, alone at 4 gae/ha): 17.5%
Chemical 1 Mean % Weed Control ([5]; 7 DAA, alone at 1 gae/ha): 28.75%
Chemical 1 Mean % Weed Control ([5]; 7 DAA, alone at 2 gae/ha): 56.25%
Chemical 1 Mean % Weed Control ([5]; 7 DAA, alone at 4 gae/ha): 56.25%
Chemical 1 Mean % Weed Control ([5]; 14 DAA, alone at 1 gae/ha): 33.33% and 40%
Chemical 1 Mean % Weed Control ([5]; 14 DAA, alone at 2 gae/ha): 60%
Chemical 1 Mean % Weed Control ([5]; 14 DAA, alone at 4 gae/ha): 62.5% and 63.33%
Chemical 1 Mean % Weed Control ([5]; 17 DAA, alone at 1 gae/ha): 40%
Chemical 1 Mean % Weed Control ([5]; 17 DAA, alone at 2 gae/ha): 53.75%
Chemical 1 Mean % Weed Control ([5]; 17 DAA, alone at 4 gae/ha): 62.5%

From patent US20210378246A1, “COMPOSITIONS COMPRISING HALAUXIFEN AND OTHER HERBICIDES AND METHODS THEREOF” (DOW AGROSCIENCES LLC, priority 2018, published 2021)
